# PubChem BioAssay AID720570 (Broad Institute, 2013)
# The source made the active and inactive calls.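 The calls were made as follows: active = cell-killing curve crosses a set limit at a concentration no more than twice the top valid dose; inconclusive = flat curve with a 30 to 70% loss, or a poor fit; inactive = signal rising instead of falling, and the rest.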
# Experiment: cytotoxicity in EWS/Fli1-dependent TC71 cells – cell-based, luminescence, cherry-picked samples, retest, confirmation (AID 720570)
# Conditions: TC71 Ewing sarcoma viability, CellTiter-Glo ATP, 72 h; at 23.5 µM (top of the series)
row,SMILES,"activity change, negative = cytotoxicity"
1,COC(=O)C[C@@H]1CC[C@@H]2[C@@H](COc3ccc(NC(=O)Nc4cccc(Cl)c4)cc3C(=O)N2C)O1,-4.34% (inactive)

# Same assay, conditions: TC71 Ewing sarcoma viability, CellTiter-Glo ATP, 72 h; at 26 µM (top of the series)
row,SMILES,"activity change, negative = cytotoxicity"
1,Nc1ccc(Oc2cccc(Oc3ccc(N)cc3)c2)cc1,-7.72% (inactive)
2,COc1ccc(S(=O)(=O)Nc2ccc3c(c2)C(=O)N([C@H](C)CO)C[C@@H](C)[C@@H](CN(C)CC2CCCCC2)OCCCC[C@H](C)O3)cc1,-1.56% (inactive)
3,CCC(C)Cn1c(O)cc2nn(-c3nc4ccccc4s3)c(=O)c-2c1C (stereo not drawn),-4.93% (inactive)
4,COc1cc(C(c2c(C)[nH][nH]c2=O)c2c(C)[nH][nH]c2=O)ccc1OC(C)C,3.29% (inactive)
5,O=c1c2ccccc2oc2ccc(C#CC3(O)CCCCC3)cc12,-10.3% (inactive)
6,C/C=C/c1ccc(C2[C@@H]3CN(C(=O)Cc4ccccc4)C[C@H]2N3)cc1 (stereo partly drawn),6.18% (inactive)
7,C[C@@H]1CN([C@@H](C)CO)S(=O)(=O)c2ccc(C#Cc3ccncc3)cc2O[C@H]1CN(C)C(=O)C1CCOCC1,-5.87% (inactive)
8,O=C(O)c1ccc(N/N=C/c2cc(Br)cs2)cc1,25.7% (inactive)
9,COC(=O)C[C@@H]1CC[C@@H]2[C@H](COc3ccc(NC(=O)Nc4cccc(C#N)c4)cc3C(=O)N2C)O1,5.41% (inactive)
10,CCc1ccc(/C=C2\SC(=S)N(CCCC(=O)NC3=NCCS3)C2=O)cc1,13.5% (inactive)
11,Nc1ccc2oc(-c3cc(Br)ccc3Cl)nc2c1,-14.7% (inactive)
12,O=C1CCC2S/C(=C/Nc3ccc(C(F)(F)F)cc3)C(=O)N12 (stereo not drawn),11.9% (inactive)
13,Cc1ccc(-c2ccc3c(c2)O[C@@H](CN(C)C(=O)Nc2ccc(F)cc2)[C@H](C)CN([C@@H](C)CO)S3(=O)=O)cc1,-12.5% (inactive)
14,CC(C)(C)c1ccc(/C=N/Nc2ccc(C(=O)O)cc2)cc1,1.96% (inactive)
15,COc1ccc(/C=C2\SC(=O)N(CCCC(=O)Nc3ccc(C(=O)O)cc3)C2=O)cc1,21.2% (inactive)
16,CC(C)c1ccc(OCc2cccc(C(=O)N/N=C/c3cccnc3)c2)cc1,0.747% (inactive)
17,COc1ccc(OC)c(-c2cc(C(F)(F)F)c3c(n2)sc2c(O)cc(=O)[nH]c23)c1,-3.31% (inactive)
18,Nc1ccc(-c2cc3ccccc3oc2=O)cc1,-3.32% (inactive)
19,C=C(C(=O)c1ccccc1)C(C(=C)C(=O)c1ccccc1)c1ccc(OC)cc1,10.8% (inactive)

row,SMILES,"activity change, negative = cytotoxicity"
1,CCc1ccc(N2C=C(C(=O)OC)C(c3ccc(OC)cc3)C(C#N)=C2N)cc1 (stereo not drawn),-7.67% (inactive)
2,COC(=O)c1cccc(NC(=O)NC(=O)c2ccccc2Cl)c1,7.25% (inactive)
3,COc1ccc(Nc2oc(COc3ccccc3OC)nc2C#N)cc1,0.131% (inactive)
4,Cc1csc(NC(=O)CCc2c(C)nc3cc(-c4ccc(Cl)cc4)nn3c2C)n1,10.8% (inactive)
5,CCOc1cc2[nH]c(=S)n(Cc3ccc(C(=O)NCCN(CC)CC)cc3)c(=O)c2cc1OCC,11.4% (inactive)
6,C=C1C(=O)C=C[C@]2(C)C[C@@H]3OC(=O)[C@](C)(O)[C@H]3C[C@@H]12,-94.2% (inactive)
7,O=C(Nc1nc(-c2ccc(F)c(F)c2)cs1)c1ccc(OCC2CCCO2)cc1 (stereo not drawn),1.49% (inactive)
8,CN(C)c1ccc(N=Nc2ccc(C(=O)O)cc2)cc1,9.97% (inactive)
9,Cc1c(Cl)cnc(NC(=O)COC(=O)c2ccc3ncsc3c2)c1Cl,5.39% (inactive)
10,COC(=O)C[C@@H]1CC[C@@H]2[C@H](COc3ccc(NC(=O)c4ccc(F)cc4)cc3C(=O)N2C)O1,15.1% (inactive)
11,Cc1cc2sc3ccc(C#CC4(O)CCCCC4)cc3c(=O)c2cc1C,23.5% (inactive)
12,C[C@@H]1CN([C@@H](C)CO)C(=O)Cc2cc(NC(=O)Cn3cnnn3)ccc2O[C@@H]1CN(C)Cc1ccc(Oc2ccccc2)cc1,21.2% (inactive)
13,O=C(O)c1cccc(N/N=C/c2ccc(OC(F)(F)F)cc2)c1,1.52% (inactive)
14,CCCN1C(=O)/C(=C/c2nc3ccccc3c(=O)[nH]2)c2ccccc21,3.09% (inactive)
15,Cc1cccc(/C=N/Nc2ccc3ccccc3n2)c1,-16.4% (inactive)
16,COc1ccc(C/C(N)=N/OC(C)=O)cc1OC,9.15% (inactive)
17,COc1ccc2oc(-c3ccccc3)cc(=O)c2c1,1.87% (inactive)
18,COc1ccc(C(=O)OCC(=O)Nc2ccc(Cl)c(C(F)(F)F)c2)c(OC)c1OC,3.2% (inactive)
